Measurements from patent publication US4202819A, “2-(3-Alanyl)clavam antibiotic” (Hoffman-La Roche Inc., priority 1979, dated 1980).
Values after ≈ are worked out from the molar mass of the structure shown. Like-named read-outs stand apart in the source and are kept apart here.

Tests used:
Assay in all cases: in vitro antimicrobial activity (MIC), agar diffusion well method
Assay type in all cases: cell-based
[1] = tested on: Serratia sp. 101 (ATCC 93)
Description: (§1) The in vitro antimicrobial activity of the antibiotic (minimal inhibitory concentration) was determined by the agar diffusion well method. The results expressed in micrograms/ml were as follows: […]

[2] = tested on: Bacillus sp. E (ATCC 27859); conditions: ATCC27859, BBL Antibiotic Medium "A" Assay Agar
Description: as §1

[3] = tested on: Staphylococcus aureus 82 (ATCC 6538 P); conditions: ATCC6538, BBL Antibiotic Medium "A" Assay Agar
Description: as §1

[4] = tested on: Mycobacterium phlei 78 (ATCC 355); conditions: Mycolicibacterium phlei
Description: as §1

[5] = tested on: Pseudomonas aeruginosa 56 (ATCC 8709)
Description: as §1

[6] = tested on: Streptomyces cellulosae 097 (ATCC 3313)
Description: as §1

[7] = tested on: Acinetobacter calcoaceticus PCI-3 (ATCC 10153)
Description: as §1

[8] = tested on: Sarcina lutea PCI (ATCC 9341); conditions: Micrococcus luteus
Description: as §1

[9] = tested on: Penicillium digitatum 0184 (ATCC 26821); conditions: ATCC26821, BBL Antibiotic Medium "A" Assay Agar
Description: as §1

[10] = tested on: Proteus vulgaris 101N (ATCC 6380); conditions: ATCC6380, BBL Antibiotic Medium "A" Assay Agar
Description: as §1

[11] = tested on: Streptococcus faecium (ATCC 8043); conditions: Enterococcus faecium, ATCC8043; BBL Antibiotic Medium "A" Assay Agar
Description: as §1

[12] = tested on: Saccharomyces cerevisiae 90 (ATCC 4226)
Description: as §1

[13] = tested on: Klebsiella pneumoniae 369 (ATCC 27858)
Description: as §1

[14] = tested on: Serratia marcescens SM (ATCC 27857)
Description: as §1

[15] = tested on: Bacillus sp. TA (ATCC 27860)
Description: as §1

[16] = tested on: Paecilomyces varioti M16 (ATCC 26820)
Description: as §1

[17] = tested on: Candida albicans 155 (NRRL 477)
Description: as §1

[18] = tested on: Bacillus megaterium 164 (ATCC 8011); conditions: Priestia megaterium
Description: as §1

[19] = tested on: Escherichia coli 94 (ATCC 27856)
Description: as §1

[20] = tested on: Bacillus subtilis 558 (NRRL 558)
Description: as §1

N[C@@H](CC1CN2C(=O)CC2O1)C(=O)O (some centres unmarked) [2-(3-alanyl)clavam, 3-(7-oxo-4-oxa-1-azabicyclo[3.2.0]hept-3-yl)alanine]
MIC ([1]; ATCC93, BBL Antibiotic Medium "A" Assay Agar): > 1000 µg/mL | MIC ([1]; ATCC93, Davis Minimal Agar): 500 µg/mL (≈ 2.5 mM) | MIC [2]: > 1000 µg/mL | MIC [3]: > 1000 µg/mL | MIC ([4]; ATCC355, BBL Antibiotic Medium "A" Assay Agar): > 1000 µg/mL | MIC ([4]; ATCC355, Davis Minimal Agar): > 500 µg/mL | MIC ([5]; Davis Minimal Agar): > 1000 µg/mL | MIC ([5]; Pseudomonas aeruginosa, ATCC8709, BBL Antibiotic Medium "A" Assay Agar, read-out: MIC): > 1000 µg/mL | MIC ([6]; ATCC3313, BBL Antibiotic Medium "A" Assay Agar): > 1000 µg/mL | MIC ([6]; ATCC3313, Davis Minimal Agar): > 500 µg/mL | MIC ([7]; ATCC10153, BBL Antibiotic Medium "A" Assay Agar): > 1000 µg/mL | MIC ([7]; ATCC10153, Davis Minimal Agar): > 500 µg/mL | MIC ([8]; ATCC9341, BBL Antibiotic Medium "A" Assay Agar): > 1000 µg/mL | MIC ([8]; ATCC9341, Davis Minimal Agar): > 500 µg/mL | MIC [9]: > 1000 µg/mL | MIC [10]: > 1000 µg/mL | MIC [11]: > 1000 µg/mL | MIC ([12]; ATCC4226, BBL Antibiotic Medium "A" Assay Agar): > 1000 µg/mL | MIC ([12]; ATCC4226, Davis Minimal Agar): 125 µg/mL (≈ 0.624 mM) | MIC ([13]; ATCC27858, BBL Antibiotic Medium "A" Assay Agar): > 1000 µg/mL | MIC ([13]; ATCC27858, Davis Minimal Agar): 62.5 µg/mL (≈ 0.312 mM) | MIC ([14]; ATCC27857, BBL Antibiotic Medium "A" Assay Agar): > 1000 µg/mL | MIC ([14]; ATCC27857, Davis Minimal Agar): > 500 µg/mL | MIC ([15]; ATCC27860, BBL Antibiotic Medium "A" Assay Agar): > 1000 µg/mL | MIC ([15]; ATCC27860, Davis Minimal Agar): 0.03 µg/mL (≈ 0.00015 mM) | MIC ([16]; ATCC26820, BBL Antibiotic Medium "A" Assay Agar): 250 µg/mL (≈ 1.25 mM) | MIC ([16]; ATCC26820, Davis Minimal Agar): 15.7 µg/mL (≈ 0.0784 mM) | MIC ([17]; NRRL477, BBL Antibiotic Medium "A" Assay Agar): > 1000 µg/mL | MIC ([17]; NRRL477, Davis Minimal Agar): 500 µg/mL (≈ 2.5 mM) | MIC ([18]; ATCC8011, BBL Antibiotic Medium "A" Assay Agar): > 1000 µg/mL | MIC ([18]; ATCC8011, Davis Minimal Agar): > 500 µg/mL | MIC ([19]; ATCC27856, BBL Antibiotic Medium "A" Assay Agar): > 1000 µg/mL | MIC ([19]; ATCC27856, Davis Minimal Agar): 1000 µg/mL (≈ 5 mM) | MIC ([20]; NRRL558, BBL Antibiotic Medium "A" Assay Agar): > 1000 µg/mL | MIC ([20]; NRRL558, Davis Minimal Agar): 0.25 µg/mL (≈ 0.00125 mM)
